Reference: PMC4076210, “Discovery of Novel AKT Inhibitors with Enhanced Anti-Tumor Effects in Combination with the MEK Inhibitor” (PLoS ONE, 2014)
Like-named read-outs stand apart in the source and are kept apart here.

Legend:
Experiment in all cases: Kinase panel
Abl(T315I)(h) = biological target: T1, Abl(T315I)(h) (Homo sapiens, UniProt P00519, T315I); assay type: biochemical
T1 construct: purchased Millipore KinaseProfiler

CK2(h) = biological target: T2, CK2(h) (Homo sapiens, UniProt P68400); assay type: biochemical
T2 construct: purchased Millipore KinaseProfiler
T2 sequence (P68400 whole entry): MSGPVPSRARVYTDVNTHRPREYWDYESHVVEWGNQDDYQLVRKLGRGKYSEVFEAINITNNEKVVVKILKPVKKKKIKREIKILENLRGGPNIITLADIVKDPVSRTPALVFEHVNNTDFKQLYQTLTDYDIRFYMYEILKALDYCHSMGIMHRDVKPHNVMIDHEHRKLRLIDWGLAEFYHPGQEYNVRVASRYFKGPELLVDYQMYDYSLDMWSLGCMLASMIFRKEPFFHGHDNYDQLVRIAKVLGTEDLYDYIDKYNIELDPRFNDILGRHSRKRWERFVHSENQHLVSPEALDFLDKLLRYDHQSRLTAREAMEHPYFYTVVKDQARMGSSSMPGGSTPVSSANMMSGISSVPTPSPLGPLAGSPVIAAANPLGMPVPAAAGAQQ
T2 sequence (P67870 whole entry partner): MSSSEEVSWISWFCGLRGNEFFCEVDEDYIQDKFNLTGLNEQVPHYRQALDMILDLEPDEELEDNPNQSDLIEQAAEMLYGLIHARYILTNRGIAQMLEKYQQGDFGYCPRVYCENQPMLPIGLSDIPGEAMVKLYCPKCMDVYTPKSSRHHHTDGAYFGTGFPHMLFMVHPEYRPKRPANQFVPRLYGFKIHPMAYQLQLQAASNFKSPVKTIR

DAPK1(h) = biological target: T3, DAPK1(h) (Homo sapiens, UniProt P53355); assay type: biochemical
T3 construct: purchased Millipore KinaseProfiler
T3 sequence (P53355 whole entry): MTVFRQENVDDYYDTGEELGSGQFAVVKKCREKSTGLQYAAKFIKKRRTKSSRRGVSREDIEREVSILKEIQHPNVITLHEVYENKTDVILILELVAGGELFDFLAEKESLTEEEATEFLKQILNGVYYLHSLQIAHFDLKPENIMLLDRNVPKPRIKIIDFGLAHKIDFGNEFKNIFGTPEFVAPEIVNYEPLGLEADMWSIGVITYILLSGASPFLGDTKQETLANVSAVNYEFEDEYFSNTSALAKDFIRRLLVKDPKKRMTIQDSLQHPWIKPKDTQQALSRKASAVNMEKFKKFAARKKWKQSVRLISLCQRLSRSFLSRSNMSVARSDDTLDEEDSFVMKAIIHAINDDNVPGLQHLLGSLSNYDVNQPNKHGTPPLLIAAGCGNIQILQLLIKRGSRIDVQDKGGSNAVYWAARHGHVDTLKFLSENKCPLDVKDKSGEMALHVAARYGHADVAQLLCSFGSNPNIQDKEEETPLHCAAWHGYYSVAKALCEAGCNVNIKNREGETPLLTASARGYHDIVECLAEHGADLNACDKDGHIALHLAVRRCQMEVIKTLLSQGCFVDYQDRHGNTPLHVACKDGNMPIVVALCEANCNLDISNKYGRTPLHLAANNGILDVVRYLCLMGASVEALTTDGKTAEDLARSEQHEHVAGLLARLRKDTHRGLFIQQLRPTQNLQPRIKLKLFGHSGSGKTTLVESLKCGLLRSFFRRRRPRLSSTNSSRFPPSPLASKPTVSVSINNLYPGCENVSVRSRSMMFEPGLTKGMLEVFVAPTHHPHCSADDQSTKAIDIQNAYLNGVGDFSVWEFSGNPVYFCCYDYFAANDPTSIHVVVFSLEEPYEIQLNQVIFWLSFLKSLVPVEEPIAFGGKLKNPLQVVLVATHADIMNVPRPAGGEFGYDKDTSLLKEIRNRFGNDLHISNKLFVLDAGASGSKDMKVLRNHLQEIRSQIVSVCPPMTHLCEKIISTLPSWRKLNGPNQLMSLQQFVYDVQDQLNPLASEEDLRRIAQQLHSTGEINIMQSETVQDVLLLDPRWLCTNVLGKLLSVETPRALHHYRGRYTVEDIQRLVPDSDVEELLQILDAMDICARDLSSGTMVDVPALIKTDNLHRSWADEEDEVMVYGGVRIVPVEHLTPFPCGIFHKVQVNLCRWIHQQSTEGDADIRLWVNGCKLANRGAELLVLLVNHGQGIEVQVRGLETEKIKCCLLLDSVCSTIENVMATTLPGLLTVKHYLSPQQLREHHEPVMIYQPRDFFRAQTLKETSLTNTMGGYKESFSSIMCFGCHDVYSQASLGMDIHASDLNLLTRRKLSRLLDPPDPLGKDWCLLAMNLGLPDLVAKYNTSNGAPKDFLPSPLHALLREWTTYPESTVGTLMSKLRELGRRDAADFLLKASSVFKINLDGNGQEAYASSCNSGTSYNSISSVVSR

EphA3(h) = biological target: T4, EphA3(h) (Homo sapiens, UniProt P29320); assay type: biochemical
T4 construct: purchased Millipore KinaseProfiler
T4 sequence (P29320 21-983): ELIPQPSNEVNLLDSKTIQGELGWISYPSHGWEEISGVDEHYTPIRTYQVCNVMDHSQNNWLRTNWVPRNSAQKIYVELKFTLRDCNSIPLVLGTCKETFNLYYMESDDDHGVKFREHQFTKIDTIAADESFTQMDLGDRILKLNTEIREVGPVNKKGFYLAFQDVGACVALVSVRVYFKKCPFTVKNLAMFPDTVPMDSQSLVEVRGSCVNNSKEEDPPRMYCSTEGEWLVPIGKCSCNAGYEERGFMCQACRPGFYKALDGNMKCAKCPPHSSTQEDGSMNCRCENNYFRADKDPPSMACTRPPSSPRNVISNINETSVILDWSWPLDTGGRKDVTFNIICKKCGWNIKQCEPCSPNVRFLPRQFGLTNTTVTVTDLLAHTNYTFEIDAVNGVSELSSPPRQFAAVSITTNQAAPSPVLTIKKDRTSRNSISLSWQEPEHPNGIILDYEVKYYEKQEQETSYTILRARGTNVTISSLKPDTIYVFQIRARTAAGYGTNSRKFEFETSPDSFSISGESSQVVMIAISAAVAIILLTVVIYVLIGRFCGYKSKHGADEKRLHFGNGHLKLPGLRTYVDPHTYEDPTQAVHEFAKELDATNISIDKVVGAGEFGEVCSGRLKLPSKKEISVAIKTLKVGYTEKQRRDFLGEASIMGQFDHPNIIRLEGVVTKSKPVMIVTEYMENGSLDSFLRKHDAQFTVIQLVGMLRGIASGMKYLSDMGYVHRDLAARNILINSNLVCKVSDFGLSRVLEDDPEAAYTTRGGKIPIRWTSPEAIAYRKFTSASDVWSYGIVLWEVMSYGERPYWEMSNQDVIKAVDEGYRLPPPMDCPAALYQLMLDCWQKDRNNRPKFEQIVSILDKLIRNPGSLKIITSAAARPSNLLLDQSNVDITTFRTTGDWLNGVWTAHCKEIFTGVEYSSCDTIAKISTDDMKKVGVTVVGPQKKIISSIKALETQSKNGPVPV

ErbB4(h) = biological target: T5, ErbB4(h) (Homo sapiens, UniProt Q15303); assay type: biochemical
T5 construct: purchased Millipore KinaseProfiler
T5 sequence (Q15303 26-1308): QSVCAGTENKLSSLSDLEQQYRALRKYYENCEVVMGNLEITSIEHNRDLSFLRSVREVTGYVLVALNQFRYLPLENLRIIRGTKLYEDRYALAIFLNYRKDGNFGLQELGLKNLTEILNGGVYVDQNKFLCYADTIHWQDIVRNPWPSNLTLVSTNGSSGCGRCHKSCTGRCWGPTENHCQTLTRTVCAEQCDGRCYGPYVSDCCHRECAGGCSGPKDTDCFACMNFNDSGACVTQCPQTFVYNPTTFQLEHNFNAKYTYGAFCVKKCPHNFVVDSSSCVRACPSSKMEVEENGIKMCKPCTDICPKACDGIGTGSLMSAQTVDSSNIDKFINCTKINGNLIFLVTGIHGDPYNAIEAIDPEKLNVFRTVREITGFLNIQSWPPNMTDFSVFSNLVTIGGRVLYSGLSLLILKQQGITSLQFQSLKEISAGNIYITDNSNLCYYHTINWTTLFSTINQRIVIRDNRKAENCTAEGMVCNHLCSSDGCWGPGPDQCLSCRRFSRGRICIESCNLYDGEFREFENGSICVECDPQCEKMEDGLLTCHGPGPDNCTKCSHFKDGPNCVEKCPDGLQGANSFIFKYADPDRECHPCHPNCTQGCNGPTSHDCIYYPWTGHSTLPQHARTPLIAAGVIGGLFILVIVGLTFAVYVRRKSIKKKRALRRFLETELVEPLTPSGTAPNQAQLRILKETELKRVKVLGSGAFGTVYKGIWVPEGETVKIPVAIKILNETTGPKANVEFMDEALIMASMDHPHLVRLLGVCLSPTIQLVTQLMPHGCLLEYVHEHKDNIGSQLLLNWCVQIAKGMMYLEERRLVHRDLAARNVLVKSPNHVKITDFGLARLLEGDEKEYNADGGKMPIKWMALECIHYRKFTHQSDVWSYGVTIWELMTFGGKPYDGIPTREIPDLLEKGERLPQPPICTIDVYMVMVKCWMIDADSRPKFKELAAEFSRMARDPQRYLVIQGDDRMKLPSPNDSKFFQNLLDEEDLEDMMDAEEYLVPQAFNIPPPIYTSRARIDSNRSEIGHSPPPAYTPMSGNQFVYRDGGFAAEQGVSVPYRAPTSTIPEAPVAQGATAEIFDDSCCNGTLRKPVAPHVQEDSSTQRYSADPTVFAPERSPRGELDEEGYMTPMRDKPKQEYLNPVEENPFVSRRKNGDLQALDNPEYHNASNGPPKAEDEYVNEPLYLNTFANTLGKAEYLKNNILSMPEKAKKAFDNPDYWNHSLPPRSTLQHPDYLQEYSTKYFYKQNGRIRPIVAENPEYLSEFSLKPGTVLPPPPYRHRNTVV

NEK3(h) = biological target: T6, NEK3(h) (Homo sapiens, UniProt P51956); assay type: biochemical
T6 construct: purchased Millipore KinaseProfiler
T6 sequence (P51956 1-506): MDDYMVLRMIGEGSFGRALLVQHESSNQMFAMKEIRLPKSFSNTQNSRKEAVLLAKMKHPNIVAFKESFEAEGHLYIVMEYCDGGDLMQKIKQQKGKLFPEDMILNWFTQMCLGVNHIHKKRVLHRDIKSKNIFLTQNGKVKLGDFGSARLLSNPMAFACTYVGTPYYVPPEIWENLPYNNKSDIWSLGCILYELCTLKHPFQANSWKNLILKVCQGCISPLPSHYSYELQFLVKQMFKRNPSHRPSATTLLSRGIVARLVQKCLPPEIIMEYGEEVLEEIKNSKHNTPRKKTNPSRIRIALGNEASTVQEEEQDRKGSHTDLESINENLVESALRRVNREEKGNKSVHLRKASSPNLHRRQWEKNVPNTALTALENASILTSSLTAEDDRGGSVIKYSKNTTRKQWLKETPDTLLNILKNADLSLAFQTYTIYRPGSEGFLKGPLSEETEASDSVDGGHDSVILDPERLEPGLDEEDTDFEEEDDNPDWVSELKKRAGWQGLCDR

PKCβI(h) = biological target: T7, PKCβI(h) (Homo sapiens, UniProt P05771); assay type: biochemical
T7 construct: purchased Millipore KinaseProfiler
T7 sequence (P05771 whole entry): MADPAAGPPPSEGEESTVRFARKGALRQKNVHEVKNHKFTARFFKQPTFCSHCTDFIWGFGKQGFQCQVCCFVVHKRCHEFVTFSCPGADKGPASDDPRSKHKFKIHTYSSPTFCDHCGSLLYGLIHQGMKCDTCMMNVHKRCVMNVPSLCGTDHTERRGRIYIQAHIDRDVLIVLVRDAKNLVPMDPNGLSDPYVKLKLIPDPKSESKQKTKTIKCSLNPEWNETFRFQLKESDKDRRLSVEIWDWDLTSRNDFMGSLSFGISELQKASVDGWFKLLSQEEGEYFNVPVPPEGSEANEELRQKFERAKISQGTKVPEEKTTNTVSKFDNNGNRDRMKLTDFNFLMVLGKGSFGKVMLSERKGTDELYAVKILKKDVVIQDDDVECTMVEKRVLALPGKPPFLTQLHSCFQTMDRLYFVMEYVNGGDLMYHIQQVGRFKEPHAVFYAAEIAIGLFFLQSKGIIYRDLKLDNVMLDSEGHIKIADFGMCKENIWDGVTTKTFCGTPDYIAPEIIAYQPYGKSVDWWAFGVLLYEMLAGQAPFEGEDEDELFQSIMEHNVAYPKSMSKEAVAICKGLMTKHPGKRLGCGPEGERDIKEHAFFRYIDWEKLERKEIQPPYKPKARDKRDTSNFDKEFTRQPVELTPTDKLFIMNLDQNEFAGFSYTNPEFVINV

Src(1-530)(h) = biological target: T8, Src(1-530)(h) (Homo sapiens, UniProt P12931); assay type: biochemical
T8 construct: purchased Millipore KinaseProfiler
T8 sequence (P12931 1-530 limits assumed): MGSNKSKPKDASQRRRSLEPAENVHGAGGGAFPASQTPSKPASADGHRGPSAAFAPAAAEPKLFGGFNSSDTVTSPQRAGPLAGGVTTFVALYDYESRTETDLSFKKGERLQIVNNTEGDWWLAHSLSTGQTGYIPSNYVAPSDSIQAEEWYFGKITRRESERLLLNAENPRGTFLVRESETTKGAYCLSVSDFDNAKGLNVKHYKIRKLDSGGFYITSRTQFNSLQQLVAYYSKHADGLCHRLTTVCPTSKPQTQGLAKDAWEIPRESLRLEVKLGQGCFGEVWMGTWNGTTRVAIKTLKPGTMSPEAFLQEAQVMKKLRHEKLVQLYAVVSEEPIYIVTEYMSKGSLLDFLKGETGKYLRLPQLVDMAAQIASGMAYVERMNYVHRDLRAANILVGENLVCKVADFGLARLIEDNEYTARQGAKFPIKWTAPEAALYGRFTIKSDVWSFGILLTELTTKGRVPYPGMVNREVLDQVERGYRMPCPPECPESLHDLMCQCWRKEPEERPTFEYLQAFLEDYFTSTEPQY

Syk(h) = biological target: T9, Syk(h) (Homo sapiens, UniProt P43405); assay type: biochemical
T9 construct: purchased Millipore KinaseProfiler

TAK1(h) = biological target: T10, TAK1(h) (Homo sapiens, UniProt O43318); assay type: biochemical
T10 construct: purchased Millipore KinaseProfiler
T10 sequence (O43318 1-303 limits assumed): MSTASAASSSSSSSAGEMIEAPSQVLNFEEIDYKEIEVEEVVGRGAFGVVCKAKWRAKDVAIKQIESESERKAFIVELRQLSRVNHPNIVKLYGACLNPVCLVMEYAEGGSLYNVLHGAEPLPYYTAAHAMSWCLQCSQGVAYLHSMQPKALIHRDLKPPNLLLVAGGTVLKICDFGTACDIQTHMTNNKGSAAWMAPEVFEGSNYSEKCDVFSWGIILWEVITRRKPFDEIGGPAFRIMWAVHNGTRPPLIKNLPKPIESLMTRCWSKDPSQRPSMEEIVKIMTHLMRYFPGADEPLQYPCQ

SGK3(h) = biological target: T11, SGK3(h) (Homo sapiens, UniProt Q96BR1)
T11 sequence (Q96BR1 1-496): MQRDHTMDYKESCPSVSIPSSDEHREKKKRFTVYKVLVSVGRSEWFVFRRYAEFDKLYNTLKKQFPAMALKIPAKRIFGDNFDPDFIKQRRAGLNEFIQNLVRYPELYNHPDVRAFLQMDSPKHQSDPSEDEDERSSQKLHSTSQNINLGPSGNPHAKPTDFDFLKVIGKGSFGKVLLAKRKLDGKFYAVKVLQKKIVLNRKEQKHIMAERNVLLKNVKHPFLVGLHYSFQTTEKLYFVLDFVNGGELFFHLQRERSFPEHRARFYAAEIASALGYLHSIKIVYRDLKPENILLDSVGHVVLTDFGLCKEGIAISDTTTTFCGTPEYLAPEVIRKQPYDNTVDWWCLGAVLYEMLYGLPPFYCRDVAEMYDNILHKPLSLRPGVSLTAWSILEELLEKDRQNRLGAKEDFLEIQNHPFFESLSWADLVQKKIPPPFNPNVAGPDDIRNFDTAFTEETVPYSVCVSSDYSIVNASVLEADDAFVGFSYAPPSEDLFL

Molecule Cn1ncc(Cl)c1-c1cc(C(=O)N[C@H](CN)Cc2cccc(F)c2)sc1Cl [GSK2110183] has an inhibition at 0.5 µM (Abl(T315I)(h)) of -1%, an inhibition at 10 µM (Abl(T315I)(h)) of 6% and an inhibition at 0.5 µM (CK2(h)) of 3%. For the same molecule, the inhibition at 10 µM (CK2(h)) was 8%, the inhibition at 0.5 µM (DAPK1(h)) was 1% and the inhibition at 10 µM (DAPK1(h)) was 28%. For the same molecule, the inhibition at 0.5 µM (EphA3(h)) was 1%, the inhibition at 10 µM (EphA3(h)) was 11% and the inhibition at 0.5 µM (ErbB4(h)) was -4%. It also gave an inhibition at 10 µM (ErbB4(h)) of 4%, an inhibition at 0.5 µM (NEK3(h)) of -14% and an inhibition at 10 µM (NEK3(h)) of -10%. For the same molecule, the inhibition at 0.5 µM (PKCβI(h)) was 61%, the inhibition at 10 µM (PKCβI(h)) was 96% and the inhibition at 0.5 µM (Src(1-530)(h)) was -12%. For the same molecule, the inhibition at 10 µM (Src(1-530)(h)) was 61%, the inhibition at 0.5 µM (Syk(h)) was 3% and the inhibition at 10 µM (Syk(h)) was 39%. For the same molecule, the inhibition at 0.5 µM (TAK1(h)) was -3%, the inhibition at 10 µM (TAK1(h)) was 1% and the inhibition at 0.5 µM (SGK3(h)) was 7%. It also gave an inhibition at 10 µM (SGK3(h)) of 76%.
With Cn1ncc(Cl)c1-c1cc(C(=O)N[C@H](CN)Cc2ccc(F)c(F)c2)oc1Cl [GSK2141795] the inhibition at 0.5 µM (Abl(T315I)(h); 0.5 µM, read-out: % Inhibition) was -2%, the inhibition at 10 µM (Abl(T315I)(h); 10 µM, read-out: % Inhibition) was -2% and the inhibition at 0.5 µM (CK2(h); 0.5 µM, read-out: % Inhibition) was 4%. It also gave an inhibition at 10 µM (CK2(h); 10 µM, read-out: % Inhibition) of 9%, an inhibition at 0.5 µM (DAPK1(h); 0.5 µM, read-out: % Inhibition) of 1% and an inhibition at 10 µM (DAPK1(h); 10 µM, read-out: % Inhibition) of 41%. For the same molecule, the inhibition at 0.5 µM (EphA3(h); 0.5 µM, read-out: % Inhibition) was -7%, the inhibition at 10 µM (EphA3(h); 10 µM, read-out: % Inhibition) was 21% and the inhibition at 0.5 µM (ErbB4(h); 0.5 µM, read-out: % Inhibition) was -11%. For the same molecule, the inhibition at 10 µM (ErbB4(h); 10 µM, read-out: % Inhibition) was -5%, the inhibition at 0.5 µM (NEK3(h); 0.5 µM, read-out: % Inhibition) was 6% and the inhibition at 10 µM (NEK3(h); 10 µM, read-out: % Inhibition) was 12%. The inhibition at 0.5 µM (PKCβI(h); 0.5 µM, read-out: % Inhibition) was 74%, the inhibition at 10 µM (PKCβI(h); 10 µM, read-out: % Inhibition) was 97% and the inhibition at 0.5 µM (Src(1-530)(h); 0.5 µM, read-out: % Inhibition) was -30%. The inhibition at 10 µM (Src(1-530)(h); 10 µM, read-out: % Inhibition) was 30%, the inhibition at 0.5 µM (Syk(h); 0.5 µM, read-out: % Inhibition) was -18% and the inhibition at 10 µM (Syk(h); 10 µM, read-out: % Inhibition) was 35%. It also gave an inhibition at 0.5 µM (TAK1(h); 0.5 µM, read-out: % Inhibition) of -10%, an inhibition at 10 µM (TAK1(h); 10 µM, read-out: % Inhibition) of -10% and an inhibition at 0.5 µM (SGK3(h)) of 18%. The inhibition at 10 µM (SGK3(h)) was 84%.
